Test results: PubChem BioAssay AID1963836 (Molecular Pharmacology Branch, DTP, NCI, 2024)

System: 857933-349-R-J2-PDC complex spheroid viability
Test: Anticancer human tumor 857933-349-R-J2-PDC patient-derived colon adenocarcinoma cell line growth inhibition [POLQ]
Details: for IC50: curve of first compound; for viability, T/C: stronger effect = lower value
Outline: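 PDC + HUVEC + MSC complex spheroids; POLQ inhibitors ± partner drugs; top conc. at/near clinical Cmax, else 10 microM (SN-38 1 microM), half-log dilutions; 37 degrees C, 5% CO2.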

[1] = second compound 0.0316 µM, first compound 0.0316 µM
[2] = second compound 0.0316 µM, first compound 0.1 µM
[3] = second compound 0.0316 µM, first compound 0.316 µM
[4] = second compound 0.0316 µM, first compound 1 µM
[5] = second compound 0.0316 µM, first compound 3.16 µM
[6] = second compound 0.0316 µM, first compound 10 µM
[7] = second compound 0.1 µM, first compound 0.0316 µM
[8] = second compound 0.1 µM, first compound 0.1 µM
[9] = second compound 0.1 µM, first compound 0.316 µM
[10] = second compound 0.1 µM, first compound 1 µM
[11] = second compound 0.1 µM, first compound 3.16 µM
[12] = second compound 0.1 µM, first compound 10 µM
[13] = second compound 0.316 µM, first compound 0.0316 µM
[14] = second compound 0.316 µM, first compound 0.1 µM
[15] = second compound 0.316 µM, first compound 0.316 µM
[16] = second compound 0.316 µM, first compound 1 µM
[17] = second compound 0.316 µM, first compound 3.16 µM
[18] = second compound 0.316 µM, first compound 10 µM
[19] = second compound 1 µM, first compound 0.0316 µM
[20] = second compound 1 µM, first compound 0.1 µM
[21] = second compound 1 µM, first compound 0.316 µM
[22] = second compound 1 µM, first compound 1 µM
[23] = second compound 1 µM, first compound 3.16 µM
[24] = second compound 1 µM, first compound 10 µM
[25] = second compound 3.16 µM, first compound 0.0316 µM
[26] = second compound 3.16 µM, first compound 0.1 µM
[27] = second compound 3.16 µM, first compound 0.316 µM
[28] = second compound 3.16 µM, first compound 1 µM
[29] = second compound 3.16 µM, first compound 3.16 µM
[30] = second compound 3.16 µM, first compound 10 µM
[31] = second compound 10 µM, first compound 0.0316 µM
[32] = second compound 10 µM, first compound 0.1 µM
[33] = second compound 10 µM, first compound 0.316 µM
[34] = second compound 10 µM, first compound 1 µM
[35] = second compound 10 µM, first compound 3.16 µM
[36] = second compound 10 µM, first compound 10 µM
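Also: spheroids exposed to compounds for seven days before readout.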

SMILES: CC(C)n1c(=O)n(C)c2cnc3cc(F)c(-c4ccc(OCCCN5CCCCC5)nc4)cc3c21 + Cc1cccc(N(C)C(=O)C2C(O)CCN2c2nc(C)cc(C(F)(F)F)c2C#N)c1
- IC50 (second compound 0.0316 µM): > 10 µM
- IC50 (second compound 0.1 µM): > 10 µM
- IC50 (second compound 0.316 µM): > 10 µM
- IC50 (second compound 1 µM): > 10 µM
- IC50 (second compound 3.16 µM): > 10 µM
- IC50 (second compound 10 µM): > 10 µM
- viability, T/C [1]: 106%
- viability, T/C [2]: 78.1%
- viability, T/C [3]: 90.2%
- viability, T/C [4]: 113%
- viability, T/C [5]: 107%
- viability, T/C [6]: 69.8%
- viability, T/C [7]: 97.7%
- viability, T/C [8]: 107%
- viability, T/C [9]: 98.9%
- viability, T/C [10]: 105%
- viability, T/C [11]: 87%
- viability, T/C [12]: 68.5%
- viability, T/C [13]: 97.2%
- viability, T/C [14]: 94.3%
- viability, T/C [15]: 104%
- viability, T/C [16]: 94.9%
- viability, T/C [17]: 105%
- viability, T/C [18]: 88%
- viability, T/C [19]: 80.7%
- viability, T/C [20]: 73.8%
- viability, T/C [21]: 92.6%
- viability, T/C [22]: 110%
- viability, T/C [23]: 114%
- viability, T/C [24]: 66.9%
- viability, T/C [25]: 83.6%
- viability, T/C [26]: 89.2%
- viability, T/C [27]: 116%
- viability, T/C [28]: 79.3%
- viability, T/C [29]: 102%
- viability, T/C [30]: 75%
- viability, T/C [31]: 73.2%
- viability, T/C [32]: 65.9%
- viability, T/C [33]: 87.9%
- viability, T/C [34]: 97.3%
- viability, T/C [35]: 106%
- viability, T/C [36]: 64.5%

SMILES: CCc1cc2c(N3CCc4c(cc(Cn5ccnc5)cc4-c4cn(C)nc4C(F)(F)F)C3=O)cc(C)nc2c(OC)n1 + Cc1cccc(N(C)C(=O)C2C(O)CCN2c2nc(C)cc(C(F)(F)F)c2C#N)c1
- IC50 (second compound 0.0316 µM): > 10 µM
- IC50 (second compound 0.1 µM): > 10 µM
- IC50 (second compound 0.316 µM): > 10 µM
- IC50 (second compound 1 µM): > 10 µM
- IC50 (second compound 3.16 µM): > 10 µM
- IC50 (second compound 10 µM): > 10 µM
- viability, T/C [1]: 106%
- viability, T/C [2]: 93.2%
- viability, T/C [3]: 99%
- viability, T/C [4]: 79.9%
- viability, T/C [5]: 75.1%
- viability, T/C [6]: 62.3%
- viability, T/C [7]: 106%
- viability, T/C [8]: 103%
- viability, T/C [9]: 78.5%
- viability, T/C [10]: 82%
- viability, T/C [11]: 77.6%
- viability, T/C [12]: 68.8%
- viability, T/C [13]: 100%
- viability, T/C [14]: 89.6%
- viability, T/C [15]: 83.5%
- viability, T/C [16]: 82.8%
- viability, T/C [17]: 80.3%
- viability, T/C [18]: 61.6%
- viability, T/C [19]: 99.6%
- viability, T/C [20]: 83%
- viability, T/C [21]: 86.3%
- viability, T/C [22]: 85.2%
- viability, T/C [23]: 73.8%
- viability, T/C [24]: 61.9%
- viability, T/C [25]: 107%
- viability, T/C [26]: 91.3%
- viability, T/C [27]: 82.7%
- viability, T/C [28]: 77.8%
- viability, T/C [29]: 60.2%
- viability, T/C [30]: 55.1%
- viability, T/C [31]: 95.4%
- viability, T/C [32]: 99.9%
- viability, T/C [33]: 92.5%
- viability, T/C [34]: 72.6%
- viability, T/C [35]: 67.6%
- viability, T/C [36]: 62.8%

SMILES: COc1cc2cc(C(=O)CCC(=O)O)sc2cc1OC + Cc1cccc(N(C)C(=O)C2C(O)CCN2c2nc(C)cc(C(F)(F)F)c2C#N)c1
- IC50 (second compound 0.0316 µM): > 10 µM
- IC50 (second compound 0.1 µM): > 10 µM
- IC50 (second compound 0.316 µM): > 10 µM
- IC50 (second compound 1 µM): > 10 µM
- IC50 (second compound 3.16 µM): > 10 µM
- IC50 (second compound 10 µM): > 10 µM
- viability, T/C [1]: 97.6%
- viability, T/C [2]: 95.1%
- viability, T/C [3]: 93.6%
- viability, T/C [4]: 97.7%
- viability, T/C [5]: 96.9%
- viability, T/C [6]: 84.1%
- viability, T/C [7]: 94.8%
- viability, T/C [8]: 93%
- viability, T/C [9]: 102%
- viability, T/C [10]: 102%
- viability, T/C [11]: 86.8%
- viability, T/C [12]: 87.2%
- viability, T/C [13]: 88.8%
- viability, T/C [14]: 93.8%
- viability, T/C [15]: 89.9%
- viability, T/C [16]: 89.4%
- viability, T/C [17]: 87.9%
- viability, T/C [18]: 76.5%
- viability, T/C [19]: 89.4%
- viability, T/C [20]: 96.5%
- viability, T/C [21]: 100%
- viability, T/C [22]: 96.9%
- viability, T/C [23]: 101%
- viability, T/C [24]: 92.1%
- viability, T/C [25]: 104%
- viability, T/C [26]: 106%
- viability, T/C [27]: 90.4%
- viability, T/C [28]: 101%
- viability, T/C [29]: 100%
- viability, T/C [30]: 86.6%
- viability, T/C [31]: 84.7%
- viability, T/C [32]: 87.6%
- viability, T/C [33]: 81.6%
- viability, T/C [34]: 105%
- viability, T/C [35]: 88.8%
- viability, T/C [36]: 85.6%
